Reference: ChEMBL document CHEMBL1201862, “PubChem BioAssay data set” (2004)
Values belong to the compound of their own block, whether it stands above or below them. Calls of active or inactive are those of the source.

Experiments:
[1] = molecular target: Glutathione-S-transferase (Schistosoma japonicum, UniProt Q26513); assay: biotin-GST/anti-GST TR-FRET signal inhibitors, dose response, artefact control for Vif-APOBEC3G degradation inhibitor project, biochemical (AID 1117362); type: functional
Genome polyprotein = Genome polyprotein (dengue virus type 2, UniProt P29990); assay: Dengue-2 NS5 methyltransferase inhibitors, primary screen, biochemical, confirmation dose response (AID 588689); type: functional
[2] = THP-1 cell cytotoxicity, dose response, cytotoxicity control for Vif-APOBEC3G degradation inhibitor project, THP-1 cells (AID 1117359); type: functional; conditions: Human immunodeficiency virus 1, THP-1
[3] = inhibitors of Vif binding to APOBEC3G peptide, primary screen, biochemical, TR-FRET, GST-Vif 1-94, biotin-A3G peptide, dose response retest (AID 1117319); type: functional;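 further: TR-FRET signal of purified GST-Vif binding a biotinylated A3G peptide; inhibitors lower the FRET signal by blocking Vif and A3G binding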
Protein Tat = molecular target: T1, Protein Tat (Human immunodeficiency virus type 1 group M subtype B (isolate HXB2)(HIV-1), UniProt P04608); type: functional;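 further: tat binding to TAR RNA read out by fluorescence polarization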
T1 sequence (P04608 whole entry): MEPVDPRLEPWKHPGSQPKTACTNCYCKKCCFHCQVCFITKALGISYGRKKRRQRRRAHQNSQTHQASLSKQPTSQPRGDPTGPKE

[4] = molecular target: Glucose-6-phosphate 1-dehydrogenase (Homo sapiens, UniProt P11413); assay: human G6PD enzyme inhibitors, dose response, selectivity assay for P. falciparum G6PD inhibitor project, biochemical, fluorescence (AID 504792); type: functional
[5] = molecular target: Heat shock protein HSP 90-alpha (Homo sapiens, UniProt P07900); type: functional, organism-based
[6] = Vero cell cytotoxicity, dose response, cytotoxicity control for Vif-APOBEC3G degradation inhibitor project, Vero cells (AID 1117358); type: functional; conditions: Human immunodeficiency virus 1, Vero
[7] = molecular target: E3 ubiquitin-protein ligase Mdm2 (Homo sapiens, UniProt Q00987); assay: enhancers of MDM2-luciferase reporter signal, concentration-effect titration, project on inhibitors of MDM2 ubiquitin ligase, cellular assay, luminescent readout, 384-well plate format (AID 1394); type: functional;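 further: MDM2 E3 inhibitors raise luminescence so EC50 is for signal enhancement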
[8] = molecular target: Peroxisome proliferator-activated receptor gamma/Nuclear receptor coactivator 1 (Homo sapiens, UniProt P37231); type: functional;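 further: agonist potency as compounds enhance coactivator SRC-1 recruitment to PPARgamma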
[9] = molecular target: Neuropeptide Y receptor type 2 (Homo sapiens, UniProt P49146); assay: NPY-Y2 antagonist potency, selectivity check, dose response, counter-screen for NPY-Y1 antagonist project, cell-based (AID 1278); type: functional
[10] = molecular target: Peroxisome proliferator-activated receptor gamma/Nuclear receptor coactivator 2 (Homo sapiens, UniProt P37231); type: functional;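 further: agonist potency for raising coactivator recruitment to the receptor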
[11] = molecular target: Peroxisome proliferator-activated receptor gamma/Nuclear receptor coactivator 3 (Homo sapiens, UniProt P37231); type: functional;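 further: agonist potency for raising coactivator recruitment to the receptor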
Bcl-2-related protein A1 [12] = molecular target: T2, Bcl-2-related protein A1 (Mus musculus, UniProt Q07440); assay: Bfl-1 inhibitors, primary screen, biochemical, fluorescence polarization, FITC-Bid, mouse (AID 432)
T2 sequence (Q07440 whole entry): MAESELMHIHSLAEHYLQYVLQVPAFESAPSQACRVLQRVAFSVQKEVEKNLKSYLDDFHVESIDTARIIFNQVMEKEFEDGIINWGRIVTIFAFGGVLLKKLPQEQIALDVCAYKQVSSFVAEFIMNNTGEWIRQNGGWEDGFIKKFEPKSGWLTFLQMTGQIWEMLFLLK

Bcl-2-related protein A1 [13] = molecular target: T2, Bcl-2-related protein A1; assay: Bfl-1 inhibitors blocking BH3 peptide binding, confirmation, biochemical, TR-FRET, mouse Bfl-1 (AID 621);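 further: TR-FRET binding of GST-Bfl-1 to FITC-labelled Bid peptide via terbium antibody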
Paired box protein Pax-8 = Paired box protein Pax-8 (Homo sapiens, UniProt Q06710); assay: inhibitors of PAX8-driven TPO luciferase reporter, dose response, RMG-I cells, cherry-pick (AID 687027); type: functional, cell-based;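 further: luciferase reporter driven by Pax8 target thyroperoxidase promoter measured by SteadyGlo luminescence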
[14] = A2780 ovarian cancer cell cytotoxicity, dose response, cytotoxicity control, plate reader, dry powder samples (AID 743046); type: functional, cell-based
[15] = IOSE-T80 ovarian epithelial cell cytotoxicity, dose response, cytotoxicity control for PAX8 inhibitor project, plate reader, dry powder samples (AID 743045); type: functional, cell-based
[16] = P. falciparum Dd2 growth inhibitors, dose response, SYBR Green, dry powder samples (AID 1159566); type: functional, cell-based;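 further: potency for growth inhibition with lower SYBR green DNA signal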
[17] = cytotoxicity in OVCAR8 ovarian cancer cells, dose response, PAX8 project, cell-based, plate reader, dry powder samples (AID 743197); type: functional; conditions: OVCAR-8
[18] = NIH:OVCAR-3 ovarian cancer cell cytotoxicity, dose response, PAX8 inhibitor project, plate reader, dry powder samples (AID 743044); type: functional, cell-based
[19] = P. falciparum 3D7-ScDHODH growth inhibitors, dose response, SYBR Green, dry powder samples (AID 1159570); type: functional, cell-based;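 further: parasite growth measured after 72 hours of compound exposure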
[20] = P. falciparum ATP4 D1247Y mutant growth inhibitors, dose response, NITD609-resistant line, SYBR Green, dry powder (AID 1159571); type: functional, cell-based;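 further: parasites synchronized at ring stage by sorbitol before testing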
[21] = P. falciparum Dd2 growth inhibitors, dose response, SYBR Green, cherry-picked samples (AID 1159567); type: functional, cell-based
[22] = HepG2 cell cytotoxicity, dose response, cytotoxicity control, plate reader, dry powder samples (AID 1159569); type: functional, cell-based;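 further: inhibitor potency with signal falling toward the positive control level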
[23] = IGROV1 ovarian cancer cell cytotoxicity, dose response, PAX8 inhibitor project, plate reader, dry powder samples (AID 743043); type: functional, cell-based; conditions: IGROV-1
[24] = non-specific cell cytotoxicity, dose response, cytotoxicity control for PAX8 inhibitor project, plate reader, dry powder samples (AID 743021); type: functional, cell-based

Sequence of Neuropeptide Y receptor type 2 (P49146 whole entry): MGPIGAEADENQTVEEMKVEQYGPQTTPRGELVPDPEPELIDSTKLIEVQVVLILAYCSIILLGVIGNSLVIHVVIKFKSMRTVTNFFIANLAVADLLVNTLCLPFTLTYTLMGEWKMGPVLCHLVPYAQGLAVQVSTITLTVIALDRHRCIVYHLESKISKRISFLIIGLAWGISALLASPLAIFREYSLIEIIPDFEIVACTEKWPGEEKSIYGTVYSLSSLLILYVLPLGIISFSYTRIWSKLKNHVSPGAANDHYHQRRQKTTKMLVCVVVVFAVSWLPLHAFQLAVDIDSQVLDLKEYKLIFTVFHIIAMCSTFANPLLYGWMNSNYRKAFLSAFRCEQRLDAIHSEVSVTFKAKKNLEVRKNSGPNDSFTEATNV
Sequence of Peroxisome proliferator-activated receptor gamma/Nuclear receptor coactivator 3 (P37231 whole entry): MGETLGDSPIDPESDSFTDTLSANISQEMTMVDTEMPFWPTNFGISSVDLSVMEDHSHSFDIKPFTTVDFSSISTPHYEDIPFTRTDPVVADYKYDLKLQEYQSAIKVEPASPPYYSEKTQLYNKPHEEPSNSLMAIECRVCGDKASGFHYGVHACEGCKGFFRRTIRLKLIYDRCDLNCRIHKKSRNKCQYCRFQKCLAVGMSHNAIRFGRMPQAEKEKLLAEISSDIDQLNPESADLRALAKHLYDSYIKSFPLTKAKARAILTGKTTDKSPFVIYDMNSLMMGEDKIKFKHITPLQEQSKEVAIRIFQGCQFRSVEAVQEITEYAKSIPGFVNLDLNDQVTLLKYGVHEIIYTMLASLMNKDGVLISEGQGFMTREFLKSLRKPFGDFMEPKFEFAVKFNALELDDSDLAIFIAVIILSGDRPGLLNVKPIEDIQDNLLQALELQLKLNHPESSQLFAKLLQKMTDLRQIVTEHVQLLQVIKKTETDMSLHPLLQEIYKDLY
Sequence of Peroxisome proliferator-activated receptor gamma/Nuclear receptor coactivator 3 (Q9Y6Q9 whole entry, further chain): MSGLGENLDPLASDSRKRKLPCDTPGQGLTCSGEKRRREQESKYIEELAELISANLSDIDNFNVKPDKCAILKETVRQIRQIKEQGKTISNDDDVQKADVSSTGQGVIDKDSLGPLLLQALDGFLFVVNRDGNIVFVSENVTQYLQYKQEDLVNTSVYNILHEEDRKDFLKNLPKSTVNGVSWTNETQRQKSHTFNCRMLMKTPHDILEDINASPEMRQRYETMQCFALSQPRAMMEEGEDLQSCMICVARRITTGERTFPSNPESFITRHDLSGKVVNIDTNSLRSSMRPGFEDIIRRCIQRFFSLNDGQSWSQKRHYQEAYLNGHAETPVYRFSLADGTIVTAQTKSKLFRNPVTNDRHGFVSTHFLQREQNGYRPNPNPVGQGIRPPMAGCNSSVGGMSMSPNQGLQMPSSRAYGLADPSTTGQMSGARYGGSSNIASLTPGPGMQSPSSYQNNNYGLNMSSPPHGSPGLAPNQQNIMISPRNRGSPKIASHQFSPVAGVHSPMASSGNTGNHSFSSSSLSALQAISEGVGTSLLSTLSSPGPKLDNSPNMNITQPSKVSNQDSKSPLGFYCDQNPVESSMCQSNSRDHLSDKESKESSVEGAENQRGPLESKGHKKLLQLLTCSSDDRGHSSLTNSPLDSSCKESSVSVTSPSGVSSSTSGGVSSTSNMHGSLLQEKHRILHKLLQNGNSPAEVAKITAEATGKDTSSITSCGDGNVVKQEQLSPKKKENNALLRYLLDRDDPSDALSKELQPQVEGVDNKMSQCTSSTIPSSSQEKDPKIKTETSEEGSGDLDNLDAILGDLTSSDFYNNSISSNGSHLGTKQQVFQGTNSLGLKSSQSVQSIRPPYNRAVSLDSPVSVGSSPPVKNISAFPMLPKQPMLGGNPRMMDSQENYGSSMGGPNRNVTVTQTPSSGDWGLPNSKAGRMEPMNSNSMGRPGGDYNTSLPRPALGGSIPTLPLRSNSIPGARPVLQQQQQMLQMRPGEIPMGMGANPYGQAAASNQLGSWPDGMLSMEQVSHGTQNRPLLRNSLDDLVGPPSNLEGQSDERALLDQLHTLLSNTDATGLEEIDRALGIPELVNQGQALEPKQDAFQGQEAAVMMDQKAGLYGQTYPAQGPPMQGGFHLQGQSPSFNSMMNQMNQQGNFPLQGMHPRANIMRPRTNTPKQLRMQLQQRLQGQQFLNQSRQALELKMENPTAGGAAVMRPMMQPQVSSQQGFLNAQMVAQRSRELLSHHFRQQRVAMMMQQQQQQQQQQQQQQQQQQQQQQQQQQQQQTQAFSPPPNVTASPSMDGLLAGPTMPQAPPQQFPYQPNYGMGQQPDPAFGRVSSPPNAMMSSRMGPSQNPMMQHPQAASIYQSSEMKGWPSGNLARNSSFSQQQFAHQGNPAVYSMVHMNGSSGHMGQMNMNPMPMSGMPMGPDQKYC
Sequence of Peroxisome proliferator-activated receptor gamma/Nuclear receptor coactivator 1 (P37231 whole entry): as the sequence (P37231 whole entry) above
Sequence of Peroxisome proliferator-activated receptor gamma/Nuclear receptor coactivator 1 (Q15788 whole entry, further chain): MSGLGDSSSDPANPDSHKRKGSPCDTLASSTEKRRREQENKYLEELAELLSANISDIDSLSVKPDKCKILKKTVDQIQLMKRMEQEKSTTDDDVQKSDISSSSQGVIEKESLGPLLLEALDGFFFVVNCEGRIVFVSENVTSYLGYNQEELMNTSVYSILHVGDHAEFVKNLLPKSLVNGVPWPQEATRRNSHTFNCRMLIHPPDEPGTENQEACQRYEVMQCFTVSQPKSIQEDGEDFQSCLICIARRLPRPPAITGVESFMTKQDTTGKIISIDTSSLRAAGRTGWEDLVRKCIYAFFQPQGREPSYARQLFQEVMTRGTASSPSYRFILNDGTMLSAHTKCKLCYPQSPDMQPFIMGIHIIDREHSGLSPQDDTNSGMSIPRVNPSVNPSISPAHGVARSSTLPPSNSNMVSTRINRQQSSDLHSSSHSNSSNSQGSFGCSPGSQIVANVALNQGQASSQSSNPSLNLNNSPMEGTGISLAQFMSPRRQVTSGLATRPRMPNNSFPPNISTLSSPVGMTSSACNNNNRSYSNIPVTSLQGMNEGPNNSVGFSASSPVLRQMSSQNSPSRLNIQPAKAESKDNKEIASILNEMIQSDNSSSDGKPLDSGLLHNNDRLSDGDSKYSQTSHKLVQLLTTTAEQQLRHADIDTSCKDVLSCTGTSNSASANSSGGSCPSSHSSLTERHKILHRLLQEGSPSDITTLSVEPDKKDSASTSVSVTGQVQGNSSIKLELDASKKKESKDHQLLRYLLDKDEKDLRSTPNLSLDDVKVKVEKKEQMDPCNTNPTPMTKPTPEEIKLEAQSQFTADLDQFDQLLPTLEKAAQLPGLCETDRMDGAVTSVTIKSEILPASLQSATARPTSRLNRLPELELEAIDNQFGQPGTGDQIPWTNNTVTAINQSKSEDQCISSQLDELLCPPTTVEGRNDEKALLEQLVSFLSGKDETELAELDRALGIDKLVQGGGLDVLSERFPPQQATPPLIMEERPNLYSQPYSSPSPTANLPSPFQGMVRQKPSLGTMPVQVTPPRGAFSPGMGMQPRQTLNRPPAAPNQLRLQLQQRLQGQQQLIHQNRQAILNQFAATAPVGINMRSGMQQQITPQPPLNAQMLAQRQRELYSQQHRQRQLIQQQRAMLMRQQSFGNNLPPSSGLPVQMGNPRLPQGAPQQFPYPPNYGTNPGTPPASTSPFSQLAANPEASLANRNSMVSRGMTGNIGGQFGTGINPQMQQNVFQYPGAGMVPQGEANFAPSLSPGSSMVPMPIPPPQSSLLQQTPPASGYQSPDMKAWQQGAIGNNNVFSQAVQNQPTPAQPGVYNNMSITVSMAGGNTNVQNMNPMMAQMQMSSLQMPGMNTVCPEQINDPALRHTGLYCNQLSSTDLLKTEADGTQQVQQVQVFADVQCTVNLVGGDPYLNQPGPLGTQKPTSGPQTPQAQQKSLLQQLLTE
Sequence of E3 ubiquitin-protein ligase Mdm2 (Q00987 whole entry): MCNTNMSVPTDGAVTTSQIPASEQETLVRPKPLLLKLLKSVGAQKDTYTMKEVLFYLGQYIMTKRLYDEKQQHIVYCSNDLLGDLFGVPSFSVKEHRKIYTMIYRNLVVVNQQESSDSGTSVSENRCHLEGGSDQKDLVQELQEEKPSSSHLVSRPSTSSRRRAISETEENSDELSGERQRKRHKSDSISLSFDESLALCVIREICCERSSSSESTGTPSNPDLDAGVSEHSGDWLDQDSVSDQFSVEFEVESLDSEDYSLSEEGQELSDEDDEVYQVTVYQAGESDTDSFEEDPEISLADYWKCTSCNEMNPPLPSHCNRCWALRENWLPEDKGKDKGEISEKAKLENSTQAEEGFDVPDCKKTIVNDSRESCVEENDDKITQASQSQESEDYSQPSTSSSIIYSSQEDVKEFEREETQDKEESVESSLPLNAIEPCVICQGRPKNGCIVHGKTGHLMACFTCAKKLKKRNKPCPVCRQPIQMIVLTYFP
Sequence of Glutathione-S-transferase (Q26513 whole entry): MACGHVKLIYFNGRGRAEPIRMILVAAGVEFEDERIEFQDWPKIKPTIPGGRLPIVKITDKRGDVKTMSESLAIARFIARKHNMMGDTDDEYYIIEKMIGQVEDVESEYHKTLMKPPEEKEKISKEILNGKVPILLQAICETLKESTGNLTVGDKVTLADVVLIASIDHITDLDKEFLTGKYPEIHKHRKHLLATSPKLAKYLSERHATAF

SMILES: CC[n+]1ccc(C)c2cc(P(=O)(c3ccccc3)c3ccccc3)ccc21
IC50 [1]: 9.73 µM (active)

SMILES: Cc1ccc(CNc2ccc(O)cc2)cc1
IC50 (Genome polyprotein): 92.5 µM (active) | CC50 [2]: > 40 µM (active) | IC50 [3]: > 50.9 µM (active) | IC50 (Protein Tat): 25.5 µM (inconclusive) | IC50 [4]: > 80 µM (inactive)

AC50 [5]: 3.17 µM (active)
SMILES: CCCCCCC(=O)N(O)C1CC(=O)N(c2ccc(Br)cc2)C1=O (configuration not stated)
CC50 [6]: > 40 µM (active)

EC50 [7]: 13.2 µM (not active)
SMILES: CCn1c(=O)n(CC(=O)Nc2cc(OC)c(OC)c(OC)c2)c(=O)c2ccccc21

EC50 [8]: > 79.4 µM (not active) | IC50 [9]: > 35 µM (not active) | EC50 [10]: > 79.4 µM (not active) | EC50 [11]: > 79.4 µM (not active)
SMILES: Cn1ccnc1C1CCCCN1Cc1nc(-c2ccc3c(c2)OCO3)no1 (configuration not stated)

IC50 (Bcl-2-related protein A1 [12]): 18.1 µM (active) | IC50 (Bcl-2-related protein A1 [13]): > 100 µM (not active)
SMILES: COc1ccc(-c2nnc3sc(-c4c(OC)cccc4OC)nn23)cc1

SMILES: C[C@H]1CN([C@@H](C)CO)C(=O)c2c(c3ccccc3n2C)-c2ccccc2CO[C@H]1CN(C)S(=O)(=O)c1ccc([N+](=O)[O-])cc1
AC50 (Paired box protein Pax-8): 2.72 µM (active) | AC50 [14]: 12.7 µM (active) | AC50 [15]: 22.3 µM (active) | AC50 [16]: 0.234 µM (active) | AC50 [17]: 10.2 µM (active) | AC50 [18]: 10.1 µM (active) | AC50 [19]: 0.298 µM (active) | AC50 [20]: 0.237 µM (active) | AC50 [21]: 0.629 µM (active) | AC50 [22]: 66.4 µM (active) | AC50 [23]: 12.2 µM (active) | AC50 [24]: 48.5 µM (active)
